In the CheMixHub viscosity set:
Values joined by “and” are separate entries in the source; they are usually repeats but may differ in a detail not shown here. Equal values may be shown once. ± gives the uncertainty stated by the source.

Assay: xn = mol fraction of the nth substance listed

O=[N+]([O-])[O-].[K+] + O
viscosity [mPa·s]
Details	x1 = 0.0009	x1 = 0.0018	x1 = 0.00893	x1 = 0.0177	x1 = 0.02	x1 = 0.02631	x1 = 0.03478	x1 = 0.0431	x1 = 0.05127
293.15 K, 101.3 kPa	0.999 ± 0.021	0.9967 ± 0.021	0.9784 ± 0.021	0.9678 ± 0.021	–	–	–	0.9855 ± 0.021	1.002 ± 0.021
298.15 K, 101.3 kPa	–	0.887 ± 0.019	0.875 ± 0.019	–	–	–	0.8802 ± 0.019	0.8927 ± 0.019	0.9095 ± 0.019
303.15 K, 101.3 kPa	0.7964 ± 0.017	0.7957 ± 0.017	0.7884 ± 0.017	0.7866 ± 0.017	–	0.791 ± 0.017	0.8004 ± 0.017	0.8138 ± 0.017	0.8319 ± 0.018
308.15 K, 101.3 kPa	0.7193 ± 0.015	0.7184 ± 0.015	0.7156 ± 0.015	0.7174 ± 0.015	–	0.7235 ± 0.015	0.7334 ± 0.015	–	0.7636 ± 0.016
318.15 K, 101.3 kPa	0.5964 ± 0.013	0.5967 ± 0.013	0.5993 ± 0.013	0.6038 ± 0.013	–	0.6128 ± 0.013	–	0.6376 ± 0.013	0.6543 ± 0.014
323.15 K, 101 kPa	–	–	–	–	0.565 ± 0.014	–	–	–	–

OCC(F)(F)C(F)F + O
viscosity [mPa·s], 100 kPa
Details	x1 = 0.1237	x1 = 0.2532	x1 = 0.3747	x1 = 0.5024	x1 = 0.6133	x1 = 0.7598	x1 = 0.8707
298.15 K	2.07 ± 0.063	2.716 ± 0.078	3.002 ± 0.081	3.314 ± 0.084	3.523 ± 0.085	3.91 ± 0.089	4.341 ± 0.095
323.15 K	1.032 ± 0.032	1.34 ± 0.039	1.478 ± 0.04	1.59 ± 0.041	1.678 ± 0.041	1.807 ± 0.041	1.961 ± 0.043

[Na+].[OH-] + O
Details	viscosity
293.15 K, 101.33 kPa, x2 = 0.67	96.16 ± 4.2 mPa·s
293.15 K, 101.33 kPa, x2 = 0.8	22.24 ± 0.93 mPa·s
293.15 K, 101.33 kPa, x2 = 0.83	18.37 ± 0.74 mPa·s
293.15 K, 101.33 kPa, x2 = 0.85	9.529 ± 0.39 mPa·s
293.15 K, 101.33 kPa, x2 = 0.86	8.225 ± 0.33 mPa·s
293.15 K, 101.33 kPa, x2 = 0.89	6.356 ± 0.25 mPa·s
293.15 K, 101.33 kPa, x2 = 0.9	4.63 ± 0.19 mPa·s
323.15 K, 101 kPa, x1 = 0.009	0.609 ± 0.018 mPa·s
323.15 K, 101 kPa, x1 = 0.026	0.745 ± 0.023 mPa·s
323.15 K, 101 kPa, x1 = 0.05	1.02 ± 0.03 mPa·s
323.15 K, 101 kPa, x1 = 0.1	1.88 ± 0.06 mPa·s and 3.28 ± 0.1 mPa·s
323.15 K, 101 kPa, x1 = 0.18	5.04 ± 0.15 mPa·s
323.15 K, 101 kPa, x1 = 0.22	7.88 ± 0.23 mPa·s
323.15 K, 101 kPa, x1 = 0.3	10.9 ± 0.32 mPa·s

[Li+].[O-][Cl+3]([O-])([O-])[O-] + O=S1(=O)CCCC1
101 kPa, x1 = 0.1
Details	viscosity
303.15 K	28.58 ± 2.9 mPa·s and 28.57 ± 2.9 mPa·s
308.15 K	24.56 ± 2.5 mPa·s
313.15 K	20.83 ± 2.1 mPa·s
318.15 K	18.28 ± 1.8 mPa·s
323.15 K	16.02 ± 1.6 mPa·s

OC1CCCCCCC1 + OCCO
viscosity [mPa·s], 100 kPa
Details	293.15 K	298.15 K	303.15 K	308.15 K	313.15 K	318.15 K
x1 = 0.0094	20.68 ± 3	16.94 ± 3	13.8 ± 3	11.25 ± 3	9.588 ± 3	7.888 ± 3
x1 = 0.0394	21.39 ± 3	17.13 ± 3	13.91 ± 3	11.23 ± 3	9.61 ± 3	7.891 ± 3
x1 = 0.0577	21.55 ± 3	17.25 ± 3	13.99 ± 3	11.26 ± 3	9.627 ± 3	7.892 ± 3
x1 = 0.0877	21.87 ± 3	17.42 ± 3	14.13 ± 3	11.32 ± 3	9.649 ± 3	7.894 ± 3
x1 = 0.0999	21.97 ± 3	17.51 ± 3	14.16 ± 3	11.34 ± 3	9.664 ± 3	7.895 ± 3
x1 = 0.196	23.21 ± 3	18.26 ± 3	14.61 ± 3	11.54 ± 3	9.751 ± 3	7.903 ± 3
x1 = 0.3048	24.11 ± 3	20.09 ± 3	15.23 ± 3	11.92 ± 3	9.992 ± 3	7.975 ± 3
x1 = 0.3968	28.39 ± 3	21.73 ± 3	16.84 ± 3	13.28 ± 3	11.14 ± 3	9.079 ± 3
x1 = 0.4992	32.09 ± 3.1	25.61 ± 3	20.38 ± 3	16.11 ± 3	13.47 ± 3	10.83 ± 3
x1 = 0.5876	42.39 ± 3.1	31.92 ± 3.1	25.48 ± 3	19.91 ± 3	16.45 ± 3	13.04 ± 3
x1 = 0.6991	59.53 ± 3.1	45.81 ± 3.1	35.59 ± 3.1	27 ± 3	21.75 ± 3	16.79 ± 3
x1 = 0.7995	87.86 ± 3.4	66.12 ± 3.1	49.1 ± 3.1	35.98 ± 3.1	28.14 ± 3	21.15 ± 3
x1 = 0.8976	130 ± 4.9	94 ± 3.6	71 ± 3.2	49.5 ± 3.1	39 ± 3.1	28 ± 3

C1=CCCCC1 + c1ccccc1
303.15 K, 101 kPa
Details	viscosity [mPa·s]
x1 = 0.1198	0.57 ± 0.007
x1 = 0.2756	0.568 ± 0.007
x1 = 0.3442	0.569 ± 0.007
x1 = 0.4509	0.566 ± 0.007
x1 = 0.4904	0.566 ± 0.007
x1 = 0.6697	0.568 ± 0.007
x1 = 0.7561	0.568 ± 0.007
x1 = 0.8665	0.571 ± 0.007

CC1CCCCC1 + c1ccccc1
303.15 K, 101 kPa
Details	viscosity [mPa·s]
x1 = 0.203	0.5138 ± 0.0038
x1 = 0.2997	0.5057 ± 0.0038
x1 = 0.4008	0.5059 ± 0.0038
x1 = 0.5041	0.5117 ± 0.0038
x1 = 0.604	0.5205 ± 0.0039
x1 = 0.7992	0.5611 ± 0.004
x1 = 0.9027	0.5961 ± 0.0042

CCCCCl + c1ccccc1
viscosity [mPa·s], 101 kPa
Details	298.15 K	308.15 K	318.15 K	323.15 K
x1 = 0.098	0.557	0.492	0.437	0.417
x1 = 0.153	0.542	0.481	0.428	0.404
x1 = 0.8	0.454	–	–	0.358

CCCNCCC + c1ccccc1
viscosity [mPa·s], 101 kPa
Details	x1 = 0.0105	x1 = 0.02072	x1 = 0.0306	x1 = 0.03896	x1 = 0.05078	x1 = 0.06138	x1 = 0.07232	x1 = 0.08121	x1 = 0.09171
303.15 K	0.5622 ± 0.0043	0.5617 ± 0.0043	0.561 ± 0.0043	0.5607 ± 0.0043	0.5602 ± 0.0043	0.5588 ± 0.0043	0.5575 ± 0.0043	0.5554 ± 0.0043	0.5542 ± 0.0043
313.15 K	0.4915 ± 0.0039	0.4902 ± 0.0039	0.4897 ± 0.0039	0.489 ± 0.0039	0.488 ± 0.0039	0.4872 ± 0.0039	0.4861 ± 0.0039	0.4851 ± 0.0039	0.4839 ± 0.0039

CCOC(=O)c1ccccc1 + c1ccccc1
298.15 K, 101 kPa
Details	viscosity [mPa·s]
x1 = 0.1302	0.7244 ± 0.019
x1 = 0.3809	1.018 ± 0.027
x1 = 0.522	1.2 ± 0.032
x1 = 0.6112	1.327 ± 0.035
x1 = 0.7595	1.557 ± 0.041
x1 = 0.848	1.709 ± 0.045

Cc1cccc([N+](=O)[O-])c1 + c1ccccc1
303.15 K, 101.33 kPa
Details	viscosity [mPa·s]
x1 = 0.2	0.7 ± 0.015
x1 = 0.395	0.85 ± 0.014
x1 = 0.599	1.09 ± 0.015
x1 = 0.804	1.44 ± 0.016

CNS(C)(=O)=O + c1ccncc1
303.15 K, 101.33 kPa
Details	viscosity [mPa·s]
x1 = 0.1002	1.039 ± 0.027
x1 = 0.1975	1.31 ± 0.034
x1 = 0.2809	1.61 ± 0.042
x1 = 0.403	2.214 ± 0.058
x1 = 0.5037	2.832 ± 0.074
x1 = 0.5728	3.346 ± 0.088
x1 = 0.7024	4.52 ± 0.12
x1 = 0.8	5.676 ± 0.15
x1 = 0.894	6.925 ± 0.18

O=C(Nc1ccccc1)c1ccccc1 + c1ccncc1
298.15 K, 101 kPa
Details	viscosity [mPa·s]
x1 = 0.0224	1.027 ± 0.21
x1 = 0.0382	1.121 ± 0.22
x1 = 0.05536	1.252 ± 0.25

CCCC[n+]1ccn(C)c1.N#C[S-] + c1ccsc1
100 kPa
Details	viscosity [mPa·s]
298.15 K, x1 = 0.754	31.95 ± 1.7
308.15 K, x1 = 0.857	28.75 ± 1.5
